Biological target: IDO1 (Homo sapiens, UniProt P14902)
Assay: IDO1 Cellular Assay in HeLa Cells Stimulated with IFNγ
Format: cell-based
Settings: about 48 hours, read-out: Hela IC50

Chain of IDO1 (P14902 whole entry): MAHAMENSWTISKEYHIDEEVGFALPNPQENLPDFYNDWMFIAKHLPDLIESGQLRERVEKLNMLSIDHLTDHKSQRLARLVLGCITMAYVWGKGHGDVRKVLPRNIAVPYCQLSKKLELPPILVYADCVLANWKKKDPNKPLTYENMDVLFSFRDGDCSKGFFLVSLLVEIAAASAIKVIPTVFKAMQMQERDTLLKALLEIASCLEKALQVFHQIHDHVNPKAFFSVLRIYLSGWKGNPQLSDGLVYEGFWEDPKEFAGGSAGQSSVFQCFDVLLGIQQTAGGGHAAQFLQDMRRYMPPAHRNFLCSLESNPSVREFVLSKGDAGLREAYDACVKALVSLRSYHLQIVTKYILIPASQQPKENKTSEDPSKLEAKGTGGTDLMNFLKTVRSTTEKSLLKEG

| SMILES | IC50 [µM] |
| --- | --- |
| CC(NC(=O)c1ccc(F)cc1)c1ccc2c(c1)CCCN2C(CO)c1cccc(Cl)c1 (single isomer, unassigned) [Example 94] | 0.236 |
| C[C@H](C(=O)Nc1ccc(F)cc1)c1ccc2c(c1)CCCN2C(=O)CC#N [Example 85, (2S)-2-[1-(cyanoacetyl)-1,2,3,4-tetrahydroquinolin-6-yl]-N-(4-fluorophenyl)propanamide] | 2.54 |
| CC(C)CC(=O)N1CCCc2cc(CNC(=O)c3ccc(Cl)c(F)c3)ccc21 [Example 9, 4-chloro-3-fluoro-N-{[1-(3-methylbutanoyl)-1,2,3,4-tetrahydroquinolin-6-yl]methyl}benzamide] | 0.0493 |
| C[C@H](C(=O)Nc1ccc(F)cn1)c1ccc2c(c1)CCCN2C(=O)C1(F)CC1 (single isomer, unassigned) [Example 63] | 0.0165 |
| Cc1n[nH]c(C(=O)N2CCCc3cc(C4(C(=O)Nc5ccc(F)cc5)CCC4)ccc32)n1 [Example 109, N-(4-fluorophenyl)-1-[1-(3-methyl-1H-1,2,4-triazole-5-carbonyl)-1,2,3,4-tetrahydroquinolin-6-yl]cyclobutane-1-carboxamide] | 0.0162 |
| C[C@H](C(=O)Nc1ccc(F)cc1)c1ccc2c(c1)CCCN2C(=O)CCOC(C)(C)C [Example 70, (2S)-2-[1-(3-tert-butoxypropanoyl)-1,2,3,4-tetrahydroquinolin-6-yl]-N-(4-fluorophenyl)propanamide] | 3.38 |
| O=C(Nc1ccc(F)cc1)C(c1ccc2c(n1)CCCN2C(=O)C1CC1)C1CC1 (stereo not shown) [Example 260, 2-(5-(cyclopropanecarbonyl)-5,6,7,8-tetrahydro-1,5-naphthyridin-2-yl)-2-cyclopropyl-N-(4-fluorophenyl)acetamide] | 0.034 |
| O=C(NC1(c2ccc3c(n2)CCCN3C(=O)C2CCCCO2)CC1)c1ccc(F)cc1 (stereo not shown) [Example 177, 4-fluoro-N-{1-[5-(oxane-2-carbonyl)-5,6,7,8-tetrahydro-1,5-naphthyridin-2-yl]cyclopropyl}benzamide] | 0.0075 |
| C[C@@H](NC(=O)c1ccc(F)cc1)c1ccc2c(n1)CCCN2C(=O)[C@@H]1CC1(F)F (single isomer, unassigned) [Example 135] | 0.414 |
| Cc1nccc(N2CCCc3nc(C4(NC(=O)c5ccc(F)c(F)c5)CC4)ccc32)n1 [Example 302, 3,4-difluoro-N-(1-(5-(2-methylpyrimidin-4-yl)-5,6,7,8-tetrahydro-1,5-naphthyridin-2-yl)cyclopropyl)benzamide] | 0.00292 |
| CC(C)(C(=O)Nc1ccc(F)cc1)c1ccc2c(n1)CCCN2C(=O)C1CC1 [Example 184, 2-[5-(cyclopropanecarbonyl)-5,6,7,8-tetrahydro-1,5-naphthyridin-2-yl]-N-(4-fluorophenyl)-2-methylpropanamide] | 0.0108 |
| Cc1nccc(N2CCCc3nc(C4(C(=O)Nc5ccc(F)cc5)CCC4)ccc32)n1 [Example 403, N-(4-fluorophenyl)-1-(5-(2-methylpyrimidin-4-yl)-5,6,7,8-tetrahydro-1,5-naphhyridin-2-yl)cyclobutane-1-carboxamide] | 0.00215 |
| CC(C)n1cc(C(=O)NCc2ccc3c(c2)CCCN3C(=O)c2cccc(Cl)c2)cn1 [Example 19, N-{[1-(3-chlorobenzene-1-carbonyl)-1,2,3,4-tetrahydroquinolin-6-yl]methyl}-1-(propan-2-yl)-1H-pyrazole-4-carboxamide] | 0.435 |
| COC(=O)N1CCCc2nc(C3(C(=O)Nc4ccc(Cl)cc4)CCC3)ccc21 [Example 218, methyl 6-{1-[(4-chlorophenyl)carbamoyl]cyclobutyl}-3,4-dihydro-1,5-naphthyridine-1(2H)-carboxylate] | 0.0051 |
| C[C@@H](NC(=O)c1ccc(Cl)cc1)c1ccc2c(n1)OCCN2C(=O)c1cccc(Cl)c1 (single isomer, unassigned) [Example 255, 4-Chloro-N-(1-(1-(3-chlorobenzoyl)-2,3-dihydro-1H-pyrido[2,3-b][1,4]oxazin-6-yl)ethyl)benzamide] | 0.0746 |
| O=C(NC1(c2ccc3c(n2)CCCN3C(=O)C2CC2)CCC1)c1ccc(Cl)cc1 [Example 183, 4-chloro-N-{1-[5-(cyclopropanecarbonyl)-5,6,7,8-tetrahydro-1,5-naphthyridin-2-yl]cyclobutyl}benzamide] | 0.0052 |
| Cc1nc(C(=O)N2CCCc3cc(C(C)C(=O)Nc4ccc(F)cc4)ccc32)no1 (stereo not shown) [Example 47, N-(4-fluorophenyl)-2-[1-(5-methyl-1,2,4-oxadiazole-3-carbonyl)-1,2,3,4-tetrahydroquinolin-6-yl]propanamide] | 0.0034 |
| CC(C)(C(=O)Nc1ccc(F)cc1)c1ccc2c(n1)CCCN2C(=O)c1cccc(Cl)c1 [Example 188, 2-[5-(3-chlorobenzene-1-carbonyl)-5,6,7,8-tetrahydro-1,5-naphthyridin-2-yl]-N-(4-fluorophenyl)-2-methylpropanamide] | 0.0057 |
| COC(=O)N1CCCc2nc(C3(NC(=O)c4ccc(F)cc4)CC3)ccc21 [Example 215, methyl 6-{1-[(4-fluorobenzene-1-carbonyl)amino]cyclopropyl}-3,4-dihydro-1,5-naphthyridine-1(2H)-carboxylate] | 0.057 |
| CC(NC(=O)c1ccc(F)cc1)c1ccc2c(n1)CCCN2C(=O)[C@@H]1CCCCO1 (stereo partly drawn) [Example 132, 4-fluoro-N-(1-(5-((S)-tetrahydro-2H-pyran-2-carbonyl)-5,6,7,8-tetrahydro-1,5-naphthyridin-2-yl)ethyl)benzamide] | 0.0487 |
| O=C(OC1CC1)N1CCc2nc(C3(C(=O)Nc4ccc(F)cc4)CCC3)ccc21 [Example 269, cyclopropyl 5-(1-((4-fluorophenyl)carbamoyl)cyclobutyl) 2,3-dihydro-1H-pyrrolo[3,2-b]pyridine-1-carboxylate] | 0.0022 |
| CC(NC(=O)c1ccc(F)cc1)c1ccc2c(n1)C(F)CCN2C(=O)C1CC1 (single isomer, unassigned) [Example 203, N-(1-(5-(cyclopropanecarbonyl)-8-fluoro-5,6,7,8-tetrahydro-1,5-naphthyridin-2-yl)ethyl)-4-fluorobenzamide] | 7.51 |
| COCCOCC(=O)N1CCCc2cc([C@H](C)C(=O)Nc3ccc(F)cc3)ccc21 [Example 77, (2S)-N-(4-fluorophenyl)-2-{1-[(2-methoxyethoxy)acetyl]-1,2,3,4-tetrahydroquinolin-6-yl}propanamide] | 1.24 |
| CC(C)CC(=O)N1CCCc2cc(CC(=O)Nc3ccc(Cl)cc3)ccc21 [Example 35, N-(4-chlorophenyl)-2-(1-(3-methylbutanoyl)-1,2,3,4-tetrahydroquinolin-6-yl)acetamide] | 0.0069 |
| COCC(=O)N1CCCc2cc(C(C)C(=O)Nc3ccc(F)cc3)ccc21 (stereo not shown) [Example 59, N-(4-fluorophenyl)-2-[1-(methoxyacetyl)-1,2,3,4-tetrahydroquinolin-6-yl]propanamide] | 0.02 |
| C[C@@H](NC(=O)c1ccc(F)cc1)c1ccc2c(n1)CCCN2C(=O)C1CC1(F)F (stereo partly drawn) [Example 133, N-{(1R)-1-[5-(2,2-difluorocyclopropane-1-carbonyl)-5,6,7,8-tetrahydro-1,5-naphthyridin-2-yl]ethyl}-4-fluorobenzamide] | 0.0636 |
| O=C(N1CCCC1)N1CCCc2cc(C3(C(=O)Nc4ccc(F)cn4)CCC3)ccc21 [Example 103, N-(5-fluoropyridin-2-yl)-1-[1-(pyrrolidine-1-carbonyl)-1,2,3,4-tetrahydroquinolin-6-yl]cyclobutane-1-carboxamide] | 0.0767 |
| C[C@@H](C(=O)Nc1ccc(F)cn1)c1ccc2c(c1)CCCN2C(=O)C1CC1 (single isomer, unassigned) [Example 60] | 0.123 |
| CC(NC(=O)c1ccc(F)cc1)c1ccc2c(n1)CCCN2C(=O)c1cc(F)ccn1 (stereo not shown) [Example 282, 2-(1-(4-fluorobenzamido)ethyl)-5-(4-fluoropicolinoyl)-5,6,7,8-tetrahydro-1,5-naphthyridin-1-ium 2,2,2-trifluoroacetate] | 0.0028 |
| CC(NC(=O)c1ccc(F)cc1)c1ccc2c(n1)CCCN2C(=O)C1(C)CCCCO1 (stereo in doubt) [Example 140, 4-fluoro-N-(1-{5-[(2R)-2-methyloxane-2-carbonyl]-5,6,7,8-tetrahydro-1,5-naphthyridin-2-yl}ethyl)benzamide] | 1.62 |

Same assay, conditions: read-out: Hela IC50

| SMILES | IC50 [µM] |
| --- | --- |
| Cc1nc(N2CCCc3nc(C(C)NC(=O)c4ccc(Cl)cc4)ccc32)c2cc(F)ccc2n1 (stereo not shown) [Example 360, 2-(1-(4-chlorobenzamido)ethyl)-5-(6-fluoro-2-methylquinazolin-4-yl)-5,6,7,8-tetrahydro-1,5-naphthyridin-1-ium 2,2,2-trifluoroacetate] | 0.0256 |
| CC(NC(=O)c1ccc(F)cc1)c1ccc2c(n1)CCCN2C(=O)OCCN(C)C (stereo not shown) [Example 329, 2-(dimethylamino)ethyl 6-(1-(4-fluorobenzamido)ethyl)-3,4-dihydro-1,5-naphthyridine-1(2H)-carboxylate] | 2.2 |
| CC(NC(=O)c1ccc(F)cc1)c1ccc2c(n1)CCCN2c1ncccc1F (stereo not shown) [Example 375, 4-fluoro-N-(1-(5-(3-fluoropyridin-2-yl)-5,6,7,8-tetrahydro-1,5-naphthyridin-2-yl)ethyl)benzamide] | 1.53 |
| O=C(OC1CC1)N1CCCc2nc(C3(C(=O)Nc4ccc(Cl)nc4)CCC3)ccc21 [Example 412, cyclopropyl 6-(1-((6-chloropyridin-3-yl)carbamoyl)cyclobutyl)-3,4-dihydro-1,5-naphthyridine-1(2H)-carboxylate] | 0.00092 |
| CC(NC(=O)c1cccc(C#N)c1)c1ccc2c(n1)CCCN2C(=O)OC1CC1 (stereo not shown) [Example 335, cyclopropyl 6-(1-(3-cyanobenzamido)ethyl)-3,4-dihydro-1,5-naphthyridine-1(2H)-carboxylate] | 5.7 |
| CC(NC(=O)c1ccc(F)cc1)c1ccc2c(n1)CCCN2c1cccc(C(F)(F)F)n1 (stereo not shown) [Example 354, 4-fluoro-N-(1-(5-(6-(trifluoromethyl)pyridin-2-yl)-5,6,7,8-tetrahydro-1,5-naphthyridin-2-yl)ethyl)benzamide] | 0.0105 |
| CC(NC(=O)c1ccc(Cl)cc1)c1ccc2c(n1)CCCN2c1nc(Cl)nc2c1CCCC2 (stereo not shown) [Example 361, 5-(2-chloro-5,6,7,8-tetrahydroquinazolin-4-yl)-2-(1-(4-chlorobenzamido)ethyl)-5,6,7,8-tetrahydro-1,5-naphthyridin-1-ium 2,2,2-trifluoroacetate] | 0.00835 |

From patent publication US12275729B2 (Merck Sharp & Dohme LLC, priority 2017, dated 2025)
